From patent US11786555B2, “RAR selective agonists in combination with immune modulators for cancer immunotherapy” (IO THERAPEUTICS, INC., priority 2017, dated 2023) come the findings set out here.

Bounds are passed on as bounds.

One experiment addresses T1, RARβ (Homo sapiens, UniProt P10826).
T1 construct: cloned receptor RAR molecules are first loaded with radiolabeled all-trans-retinoic acid
T1 sequence (P10826 1-455): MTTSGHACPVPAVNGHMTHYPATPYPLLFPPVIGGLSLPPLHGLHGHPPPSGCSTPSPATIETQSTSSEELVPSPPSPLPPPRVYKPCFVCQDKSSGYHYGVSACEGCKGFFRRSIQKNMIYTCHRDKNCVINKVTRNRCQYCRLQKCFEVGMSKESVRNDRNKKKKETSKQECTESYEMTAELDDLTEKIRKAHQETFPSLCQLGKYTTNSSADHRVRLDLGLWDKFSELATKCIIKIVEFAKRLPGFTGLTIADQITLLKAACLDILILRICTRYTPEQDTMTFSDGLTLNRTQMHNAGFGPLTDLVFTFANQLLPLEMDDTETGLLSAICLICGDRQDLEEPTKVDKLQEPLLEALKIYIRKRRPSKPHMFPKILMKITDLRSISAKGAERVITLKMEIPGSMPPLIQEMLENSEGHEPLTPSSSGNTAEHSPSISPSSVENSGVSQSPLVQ
The experiment in a line: displacement assay, agonist binding affinity. The following applies: read-out: Binding Affinities for RARβ. How it is done: (§1) Binding assays are performed using a classic competition assay format in which cloned receptor RAR molecules are first loaded with radiolabeled all-trans-retinoic acid […] and then the amount of radioactivity liberated with increasing concentration of test compound is measured.

A further experiment addresses T2, RARγ (Homo sapiens, UniProt P13631).
T2 sequence (P13631 1-454): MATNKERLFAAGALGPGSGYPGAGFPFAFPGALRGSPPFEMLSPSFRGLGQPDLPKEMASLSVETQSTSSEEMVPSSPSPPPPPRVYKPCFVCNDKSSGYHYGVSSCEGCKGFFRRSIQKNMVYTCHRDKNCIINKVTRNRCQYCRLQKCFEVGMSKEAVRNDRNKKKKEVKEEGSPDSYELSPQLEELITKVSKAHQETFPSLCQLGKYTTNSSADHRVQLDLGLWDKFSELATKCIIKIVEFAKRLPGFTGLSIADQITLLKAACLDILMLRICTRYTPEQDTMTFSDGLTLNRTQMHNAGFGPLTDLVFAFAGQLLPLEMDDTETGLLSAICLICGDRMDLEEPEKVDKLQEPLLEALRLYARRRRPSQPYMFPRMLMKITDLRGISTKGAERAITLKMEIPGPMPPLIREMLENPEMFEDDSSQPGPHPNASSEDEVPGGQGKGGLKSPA
The experiment in a line: displacement assay, agonist binding affinity. Particulars: read-out: Binding Affinities for RARγ. How it is done: as §1

Experiment [1] relates to naive CD4+ CD25− FoxP3− cells. The experiment in a line: in vitro Th17 cell differentiation. The experiment is classed as cell-based, mouse. The following applies: 0.1 nM. How it is done: To determine whether a RARα agonist could affect T cell differentiation, T cells were incubated with a RARα agonist to determine its effect on Foxp3 expression. Naive CD4^+ CD25^− FoxP3^− cells were purified from a Foxp3-GFP mouse using flow cytometry by sorting and isolating based upon a GFP^− phenotype. These cells were activated polyclonally with αCD3 in vitro in the presence of IL-2 and TGF-β. These cells were then cultured in media with various concentrations of compound IRX5183 (a RARα agonist) and the expression of FoxP3-GFP was analyzed by flow cytometry. The RARα agonist compound IRX5183 enhanced differentiation of immunosuppressive Treg cells and inhibited differentiation of inflammatory TH17 cells from naïve T cells in vitro (Table 2).

A further experiment concerns CD4+ T cells. Kind of experiment: in vivo T cell differentiation in mice (blood and spleen). Also on record: species or system mouse. Particulars: 100 μg every other day for 10 days. How it is done: To expand on the finding above, the in vivo effects of a RARα agonist on T cell differentiation was evaluated in a mouse model. Mice were treated with 100 μg of compound IRX5183 or an equivalent volume of DMSO (vehicle control) every other day for 10 days. Lymphocytes from the blood and spleen were then isolated and FoxP3 expression in CD4^+ T cells was assessed.

In another experiment the test system is H929 Luc+ cells. Kind of experiment: systemic MM xenograft, bioluminescence. The following applies: 4 weeks. The experiment is classed as in vivo, mouse. How it is done: FIG. 6 depicts bioluminescent images of systemic MM xenografts. Following engraftment of H929 Luc+ cells, mice were treated with IRX (n=4), BTZ (n=5), or a combination of both (n=5) for 4 weeks. Data represent the mean±SEM of the fold change in bioluminescence (photons/second) from day 0.
For the systemic MM model, 2×10^6 Luc+/GFP+ H929 cells were injected via the tail vein into 16-week-old male NSG mice. After engraftment, as determined by an exponential increase in bioluminescence, mice were treated with BTZ (0.5 mg/kg i.p.) twice weekly and with IRX (10 mg/kg) once daily. Tumor burden was assessed by bioluminescence, as above.
To test whether retinoids can enhance BTZ activity in MM, a systemic MM xenograft was developed by injecting 2×10^6 H929 luciferase+ (Luc+) cells via the tail vein of non-obese, diabetic, severe combined immunodeficiency IL-2 receptor y-KO (NSG) mice. The animals were randomized to receive IRX, BTZ, or a combination of both, and disease burden was followed weekly by bioluminescence imaging (FIG. 6).

Another experiment deals with Kasumi-1 cells. The experiment in a line: CFU experiments, off and on stroma. The experiment is classed as cell-based. Particulars: 10^−6 M ATRA, IRX5183, or 10^−7 M AM80. An excerpt:
(§2) Data across three independent experiments.

A further experiment relates to NB4 cells. The experiment in a line: CFU experiments, off and on stroma. The experiment is classed as cell-based. Particulars: 10^−7 M ATRA, IRX5183, or 10^−8 M AM80.
From the text: as §2

In another experiment the test system is OCI-AML3 cells. The experiment in a line: CFU experiments, off and on stroma. The experiment is classed as cell-based. The following applies: 10^−6 M ATRA, IRX5183, or 10^−7 M AM80.
From the text: as §2

In the case of `CC1(C)CCC(C)(C)c2c1cc(C(=O)Nc1cc(F)c(C(=O)O)c(F)c1)c(O)c2Cl` [IRX5183], the Kd at RARβ and at RARγ was above 10 µM throughout. The “Th17 cell Percent Differentiation” value in experiment [1] was found to be 32%. Moreover, the “Foxp3+ Expression” value in the experiment with CD4+ T cells (Blood) is 4.3%; with CD4+ T cells (Spleen), 25%. Further, the “disease burden (bioluminescence)” value in the experiment on H929 Luc+ cells (combination of IRX 10 mg/kg daily and BTZ 0.5 mg/kg twice weekly) is given as “significant (P<0.01) decrease in disease burden”. Besides, in the experiment with H929 Luc+ cells (monotherapy, BTZ 0.5 mg/kg i.p. twice weekly, IRX 10 mg/kg once daily), the “tumor burden (bioluminescence)” value is “decrease in tumor burden compared with untreated mice”. Also, the “clonogenic growth (CFU), differentiation and elimination of AML” value in the experiment on Kasumi-1 cells, in the experiment on NB4 cells and in the experiment on OCI-AML3 cells was “decrease in clonogenic growth compared to control” each time.
